The values that follow come from publication PMC9394736 (FASEB journal : official publication of the Federation of …, 2020).

Assay [1] concerns the target GST Mu (Mu class glutathione S-transferase from Schistosoma japonicum) (Schistosoma japonicum). The assay is described as follows: SEC.
The next assay concerns the target GST Mu (Schistosoma japonicum, UniProt P08515). The assay is described as follows: differential scanning fluorimetry. The format is binding. To be noted: 1 mM ethacrynic acid, without or with 1 mM GSH; H-site.
For a further assay, the target named is T1, GDAP1ΔHD1 (Mus musculus, UniProt O88741).
T1 sequence (O88741 1-292): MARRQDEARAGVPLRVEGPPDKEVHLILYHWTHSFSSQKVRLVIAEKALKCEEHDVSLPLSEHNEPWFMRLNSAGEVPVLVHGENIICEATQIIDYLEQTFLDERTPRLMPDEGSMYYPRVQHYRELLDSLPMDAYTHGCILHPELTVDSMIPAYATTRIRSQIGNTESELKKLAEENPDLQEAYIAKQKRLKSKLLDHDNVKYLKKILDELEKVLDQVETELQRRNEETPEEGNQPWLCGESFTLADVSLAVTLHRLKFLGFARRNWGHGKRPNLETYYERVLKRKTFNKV
The assay is described as follows: differential scanning fluorimetry. To be noted: 2 mM or 0.5 mM ethacrynic acid; H-site. The format is binding.

Another assay has as its target T2, GDAP1ΔTM (Mus musculus, UniProt O88741).
T2 sequence (O88741 1-322): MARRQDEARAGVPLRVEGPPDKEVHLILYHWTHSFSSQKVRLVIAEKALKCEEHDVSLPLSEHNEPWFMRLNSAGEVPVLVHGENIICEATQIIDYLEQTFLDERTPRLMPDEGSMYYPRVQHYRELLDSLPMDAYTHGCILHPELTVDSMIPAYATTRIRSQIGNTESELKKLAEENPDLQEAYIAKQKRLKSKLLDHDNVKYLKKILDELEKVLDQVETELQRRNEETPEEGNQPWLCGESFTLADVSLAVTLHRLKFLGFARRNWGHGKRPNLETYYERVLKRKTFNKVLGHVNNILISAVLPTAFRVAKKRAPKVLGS
The assay is described as follows: differential scanning fluorimetry. Particulars: 2 mM or 0.5 mM ethacrynic acid; H-site. The format is binding.

A further assay concerns the target T3, GDAP1ΔNTΔHD1 (Mus musculus, UniProt O88741).
T3 sequence (O88741 20-292): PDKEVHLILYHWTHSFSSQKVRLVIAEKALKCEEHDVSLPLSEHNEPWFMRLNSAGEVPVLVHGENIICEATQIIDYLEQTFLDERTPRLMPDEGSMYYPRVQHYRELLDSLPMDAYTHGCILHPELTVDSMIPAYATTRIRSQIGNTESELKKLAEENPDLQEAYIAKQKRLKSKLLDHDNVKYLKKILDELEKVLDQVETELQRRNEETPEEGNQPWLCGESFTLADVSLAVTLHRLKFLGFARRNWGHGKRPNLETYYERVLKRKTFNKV
The assay is described as follows: differential scanning fluorimetry. The format is binding. Particulars: 2 mM or 0.5 mM ethacrynic acid; H-site.

The target in another assay is T4, GDAP1ΔNT (Mus musculus, UniProt O88741).
T4 sequence (O88741 20-322): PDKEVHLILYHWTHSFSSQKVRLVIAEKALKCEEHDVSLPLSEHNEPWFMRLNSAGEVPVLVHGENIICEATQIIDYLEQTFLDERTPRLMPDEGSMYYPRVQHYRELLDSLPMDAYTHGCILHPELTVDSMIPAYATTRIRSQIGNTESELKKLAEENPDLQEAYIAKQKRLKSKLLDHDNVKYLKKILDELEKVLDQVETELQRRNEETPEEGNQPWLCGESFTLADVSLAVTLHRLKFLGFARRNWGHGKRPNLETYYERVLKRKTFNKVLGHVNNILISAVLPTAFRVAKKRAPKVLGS
The assay is described as follows: differential scanning fluorimetry. In kind it is binding. To be noted: 2 mM or 0.5 mM ethacrynic acid; H-site.

GST Mu (Mu class glutathione S-transferase from Schistosoma japonicum) (enzyme), sequence (P08515 2-218): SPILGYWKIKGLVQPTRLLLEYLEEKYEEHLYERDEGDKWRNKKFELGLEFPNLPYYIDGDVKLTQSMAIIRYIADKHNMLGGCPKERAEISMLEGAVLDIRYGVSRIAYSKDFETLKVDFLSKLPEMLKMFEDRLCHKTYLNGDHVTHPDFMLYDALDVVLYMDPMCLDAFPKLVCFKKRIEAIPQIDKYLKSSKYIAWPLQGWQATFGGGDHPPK
GST Mu, sequence (P08515 whole entry): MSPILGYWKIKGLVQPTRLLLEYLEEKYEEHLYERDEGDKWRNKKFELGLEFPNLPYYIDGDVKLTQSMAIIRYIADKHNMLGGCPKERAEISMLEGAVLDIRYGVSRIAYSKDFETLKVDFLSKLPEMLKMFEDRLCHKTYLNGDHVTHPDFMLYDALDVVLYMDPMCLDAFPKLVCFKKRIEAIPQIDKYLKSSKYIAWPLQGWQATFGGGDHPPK

In turn, “GST Mu (Mu class glutathione S-transferase from Schistosoma japonicum) (enzyme)” displayed a stoichiometry N in assay [1] of 2.
As to `C=C(CC)C(=O)c1ccc(OCC(=O)O)c(Cl)c1Cl` [ethacrynic acid], the melting temperature shift entry was “GST Mu had an enhanced shift in the presence of both glutathione and EA” on GST Mu; “GDAP1ΔHD1 retains binding but the magnitude of the shift was reduced” on GDAP1ΔHD1; “GDAP1ΔTM, GDAP1ΔHD1, GDAP1ΔNT, GDAP1ΔNT ΔHD1 all retained ethacrynic acid binding” on GDAP1ΔTM; “GDAP1ΔTM, GDAP1ΔHD1, GDAP1ΔNT, GDAP1ΔNT ΔHD1 all retained ethacrynic acid binding” at GDAP1ΔNTΔHD1; “GDAP1ΔTM, GDAP1ΔHD1, GDAP1ΔNT, GDAP1ΔNT ΔHD1 all retained ethacrynic acid binding” at GDAP1ΔNT.
